From patent publication US8080529B2, “Macrolides with anti-inflammatory activity” (Glaxo Group Limited, priority 2005, dated 2011)
Where two headings read alike, the source gives them in different places.

How the values were obtained:
[1] = test system: A549; assay: Cytotoxicity assay (MTT), A549 cell line; assay type: cell-based; details: 24 h
Outline: (§1)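 Hep G2 and A549 cells were cultured 24 h at 37° C in RPM medium with test compounds at 50 μM and 12.5 μM. MTT was added for 0.5-2 h and formazan read at 490 nm. Growth value calculated as OD490 treated/OD490 nontreated ×100.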

[2] = test system: IL-1α; assay: Inhibition of IL-1 production by stimulated human peripheral blood leukocytes in vitro; assay type: cell-based; details: Homo sapiens, Leukocyte, read-out: Percentage of inhibition of IL-1α production
[3] = test system: TNF-α; assay: Lipopolysaccharide induced TNF-α production in Balb/cJ mice; assay type: in vivo; details: Mus musculus, ip, 1.5 h; 10 mg/kg intraperitoneally, 30 min before LPS; 90 min after LPS; read-out: % inhibition of TNF-α production (plasma)
[4] = test system: human peripheral blood mononuclear cells (PBMC); assay: Effects on human T-cell proliferation in vitro (3H-thymidine incorporation); assay type: cell-based; details: Homo sapiens, PBMC, read-out: Percentage of inhibition of proliferation of stimulated PBMC
Outline: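 Proliferation of human peripheral blood mononuclear cells (PBMC) was assessed in the presence of test compounds. During the final 18 h of culture each well received 1 μCi of ^3H-thymidine. Cells were then collected onto a 96-well filter with a multiple cell harvester, and ^3H-thymidine incorporation was counted on a TopCount NXT to give percentage inhibition of proliferation.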

[5] = test system: TNF-α; assay: Inhibition of TNF-α production by stimulated human peripheral blood leukocytes in vitro; assay type: cell-based; details: Homo sapiens, Leukocyte, read-out: Percentage of inhibition of TNF-α production
Outline: (§2)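 Compound at 10 or 50 μM, given 2 h ahead of an overnight LPS, PMA or zymosan challenge, was tested on human PBL in RPMI with 10% FCS at 37 °C. Sandwich ELISA quantified supernatant cytokine.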

[6] = test system: IL-6; assay: Inhibition of IL-6 production by stimulated human peripheral blood leukocytes in vitro; assay type: cell-based; details: Homo sapiens, Leukocyte, read-out: Percentage of inhibition of IL-6 production
Outline: as §2

[7] = test system: Hep G2; assay: Cytotoxicity assay (MTT), Hep G2 cell line; assay type: cell-based; details: 24 h
Outline: as §1

[8] = test system: IL-8; assay: Inhibition of IL-8 production by stimulated human peripheral blood leukocytes in vitro; assay type: cell-based; details: Homo sapiens, Leukocyte, read-out: Percentage of inhibition of IL-8 production
Outline: as §2

Structure (SMILES) | Percentage of inhibition of cell growth ([1]; 12.5 μM) [%] | Percentage of inhibition of cell growth ([1]; 50 μM) [%] | inhibition at 10 µM ([2]; LPS-stimulated PBL) [%] | inhibition at 10 µM ([2]; PMA-stimulated PBL) [%] | inhibition at 10 µM ([2]; zymosan-stimulated PBL) [%] | inhibition at 50 µM ([2]; LPS-stimulated PBL) [%] | inhibition at 50 µM ([2]; PMA-stimulated PBL) [%] | inhibition at 50 µM ([2]; zymosan-stimulated PBL) [%] | inhibition in vivo at 10 mg/kg [3] [%] | inhibition at 10 µM ([4]; PHA) [%] | inhibition at 50 µM ([4]; PHA) [%] | inhibition at 10 µM ([4]; PMA + iono.) [%] | inhibition at 50 µM ([4]; PMA + iono.) [%] | inhibition at 10 µM ([5]; LPS-stimulated PBL) [%] | inhibition at 10 µM ([5]; PMA-stimulated PBL) [%] | inhibition at 10 µM ([5]; zymosan-stimulated PBL) [%] | inhibition at 50 µM ([5]; LPS-stimulated PBL) [%] | inhibition at 50 µM ([5]; PMA-stimulated PBL) [%] | inhibition at 50 µM ([5]; zymosan-stimulated PBL) [%] | inhibition at 10 µM ([6]; LPS-stimulated PBL) [%] | also measured
CC[C@H]1OC(=O)[C@H](C)[C@@H](O[C@H]2C[C@@](C)(OC)[C@@H](O)[C@H](C)O2)[C@H](C)[C@@H](O[C@@H]2O[C@H](C)C[C@H](N(C)C)[C@H]2O)[C@](C)(OC)C[C@@H](C)C(=O)[C@H](C)[C@@H](O)[C@]1(C)O [clarithromycin, reference compound] | 0 | 0 | 0 | 26 | 36 | 0 | 33 | 59 | 63 | 0 | 7 | 9 | 14 | 0 | 0 | 0 | 0 | 0 | 0 | 11 | inhibition at 10 µM ([6]; PMA-stimulated PBL): 0%; inhibition at 10 µM ([6]; zymosan-stimulated PBL): 28%; inhibition at 50 µM ([6]; LPS-stimulated PBL): 0%; inhibition at 50 µM ([6]; PMA-stimulated PBL): 0%; inhibition at 50 µM ([6]; zymosan-stimulated PBL): 0%; Percentage of inhibition of cell growth ([7]; 12.5 μM): 0%; Percentage of inhibition of cell growth ([7]; 50 μM): 0%; inhibition at 10 µM ([8]; LPS-stimulated PBL): 23%; inhibition at 10 µM ([8]; PMA-stimulated PBL): 33%; inhibition at 10 µM ([8]; zymosan-stimulated PBL): 0%; inhibition at 50 µM ([8]; LPS-stimulated PBL): 0%; inhibition at 50 µM ([8]; PMA-stimulated PBL): 0%; inhibition at 50 µM ([8]; zymosan-stimulated PBL): 0%
CC[C@H]1OC(=O)[C@H](C)[C@@H](O[C@H]2C[C@@](C)(OC)[C@@H](OC(=O)CCN3CCCN(CCCN4CCCC4)CC3)[C@H](C)O2)[C@H](C)[C@@H](O[C@@H]2O[C@H](C)C[C@H](N(C)C)[C@H]2O)[C@](C)(OC)C[C@@H](C)C(=O)N[C@H](C)[C@@H](O)[C@]1(C)O [Example 34] | 0 | 1 | 69 | 86 | 77 | 82 | 100 | 99 | 78 | 66 | 99 | 0 | 87 | 55 | 86 | 65 | 96 | 100 | 100 | 28 | inhibition at 10 µM ([6]; PMA-stimulated PBL): 66%; inhibition at 10 µM ([6]; zymosan-stimulated PBL): 66%; inhibition at 50 µM ([6]; LPS-stimulated PBL): 91%; inhibition at 50 µM ([6]; PMA-stimulated PBL): 95%; inhibition at 50 µM ([6]; zymosan-stimulated PBL): 99%; Percentage of inhibition of cell growth ([7]; 12.5 μM): 7%; Percentage of inhibition of cell growth ([7]; 50 μM): 1%; inhibition at 10 µM ([8]; LPS-stimulated PBL): 21%; inhibition at 10 µM ([8]; PMA-stimulated PBL): 33%; inhibition at 10 µM ([8]; zymosan-stimulated PBL): 32%; inhibition at 50 µM ([8]; LPS-stimulated PBL): 87%; inhibition at 50 µM ([8]; PMA-stimulated PBL): 76%; inhibition at 50 µM ([8]; zymosan-stimulated PBL): 81%
CC[C@H]1OC(=O)[C@H](C)[C@@H](O[C@H]2C[C@@](C)(OC)[C@@H](OC(=O)CCN(C)C)[C@H](C)O2)[C@H](C)[C@@H](O[C@@H]2O[C@H](C)C[C@H](N(C)C)[C@H]2O)[C@](C)(OC)C[C@@H](C)C(=O)N[C@H](C)[C@@H](O)[C@]1(C)O [Example 12, 4″-O-(3-dimethylamino-propionyl)-6-O-methyl-9a-aza-9a-homoerythromycin A] | 8 | 4 | 43 | 45 | 88 | 95 | 90 | 100 | 69 | 33 | 99 | 29 | 96 | 23 | 49 | 77 | 92 | 97 | 97 | 16 | inhibition at 10 µM ([6]; PMA-stimulated PBL): 32%; inhibition at 10 µM ([6]; zymosan-stimulated PBL): 67%; inhibition at 50 µM ([6]; LPS-stimulated PBL): 81%; inhibition at 50 µM ([6]; PMA-stimulated PBL): 67%; inhibition at 50 µM ([6]; zymosan-stimulated PBL): 91%; Percentage of inhibition of cell growth ([7]; 12.5 μM): 0%; Percentage of inhibition of cell growth ([7]; 50 μM): 0%; inhibition at 10 µM ([8]; LPS-stimulated PBL): 7%; inhibition at 10 µM ([8]; PMA-stimulated PBL): 0%; inhibition at 10 µM ([8]; zymosan-stimulated PBL): 2%; inhibition at 50 µM ([8]; LPS-stimulated PBL): 72%; inhibition at 50 µM ([8]; PMA-stimulated PBL): 3%; inhibition at 50 µM ([8]; zymosan-stimulated PBL): 9%
CC[C@H]1OC(=O)[C@H](C)[C@@H](O[C@H]2C[C@@](C)(OC)[C@@H](O)[C@H](C)O2)[C@H](C)[C@@H](O[C@@H]2O[C@H](C)C[C@H](N(C)C)[C@H]2O)[C@](C)(O)C[C@@H](C)CN(C)[C@H](C)[C@@H](O)[C@]1(C)O [azithromycin, reference compound] | 0 | 0 | 28 | 0 | 20 | 48 | 0 | 75 | 54 | 5 | 29 | 9 | 31 | 36 | 0 | 6 | 20 | 0 | 64 | 15 | inhibition at 10 µM ([6]; PMA-stimulated PBL): 0%; inhibition at 10 µM ([6]; zymosan-stimulated PBL): 20%; inhibition at 50 µM ([6]; LPS-stimulated PBL): 40%; inhibition at 50 µM ([6]; PMA-stimulated PBL): 0%; inhibition at 50 µM ([6]; zymosan-stimulated PBL): 75%; Percentage of inhibition of cell growth ([7]; 12.5 μM): 0%; Percentage of inhibition of cell growth ([7]; 50 μM): 0%; inhibition at 10 µM ([8]; LPS-stimulated PBL): 0%; inhibition at 10 µM ([8]; PMA-stimulated PBL): 0%; inhibition at 10 µM ([8]; zymosan-stimulated PBL): 0%; inhibition at 50 µM ([8]; LPS-stimulated PBL): 0%; inhibition at 50 µM ([8]; PMA-stimulated PBL): 0%; inhibition at 50 µM ([8]; zymosan-stimulated PBL): 0%
